{"source": "patent US12691112B2", "about": "“FGFR tyrosine kinase inhibitors for the treatment of urothelial carcinoma” (Janssen Pharmaceutica NV, priority 2019, dated 2026)", "tested_on": "serum phosphate", "test": "Pharmacodynamics: serum phosphate", "type": "in vivo, human", "conditions": "consequence of FGFR inhibition", "excerpt": "To manage phosphate elevation, phosphate binders were permitted. Avoid concomitant use with agents that can alter serum phosphate levels before the initial dose increase period based on serum phosphate levels."}
{"smiles": "COc1cc(OC)cc(N(CCNC(C)C)c2ccc3ncc(-c4cnn(C)c4)nc3c2)c1", "note": "[erdafitinib, N-(3,5-dimethoxy-phenyl)-N′-(1-methylethyl)-N-[3-(1-methyl-1H-pyrazol-4-yl)quinoxalin-6-yl]ethane-1,2-diamine]", "values": [{"measurement": "effect on serum phosphate level", "value": "increased serum phosphate level"}]}
